Experimental findings from US6458797B1, “Methods for remodeling neuronal and cardiovascular pathways” (Queen's University of Kingston, priority 1998, dated 2002) are described below.

Experiment [1] deals with spontaneously hypertensive rats (SHR). Kind of experiment: Structurally-based vascular resistance in perfused vascular bed of SHR after 1 or 2 weeks of drug treatment. The settings on record: for Slope Flow Pressure: control 7.13 ± 0.63; for Maximum Constriction With Cocktail “Yield”: control 381 ± 21. It is filed as in vivo, rat. The procedure:
Penile perfusion preparations were made using the procedure established by Banting, J. D., et al., “Isolation and Perfusion of the Pudendal Vasculature in Male Rats. J Urol., 2: 587-590 (1995). A heated chamber served to maintain the ambient temperature and the entire preparation at 37-38° C. The perfusate was held in a reservoir and passed through a heating and a bubble trapping/mixing chamber connected to a single peristaltic pump (Minipuls 2 Pump, Gilson, Inc., 3000 W. Beltline Highway, Middleton, Wis. USA 53562). An injection port was located distal to the pump for the introduction of pharmacological agents to minimize dead volume. Drugs were administered via a Harvard Apparatus, Inc. infusion pump (Harvard Apparatus, Inc., 84 October Hill Road, Holliston, Mass. 01746). The perfusate was a Tyrode-dextran solution consisting of a mixture of 20 mg of KCI, 32.3mg of CaCl2.H2O, 5.1 mg of MgCl2.6H2O, 6.2 mg of NaH2PO4.2H2O, 155 mg of NaHCO3, 100 mg of glucose, and 800 mg of NaCl in each 100 mL of fluid. The solution was maintained at pH 7.4, and a temperature of 37-39° C., and oxygenated with 95% O2 and 5% CO2. The rats were anaesthetized (sodium pentobarbital 60 mg/kg body weight i.p.) and heparinized (1000 IU/kg, i.v.). The bilateral isolation of penile vasculature was achieved by ligating all of the branching arteries except for the pudendal; then the abdominal aorta was cannulated proximal to the iliac bifurcation with a single lumen catheter. The catheter was connected to the perfusion apparatus via a pressure transducer for arterial pressure recording. After sectioning the vena cava and spinal cord to remove venous resistance and to eliminate neural influences, a flow of perfusate (1 mL/min per kg body weight) through the abdominal cannula was initiated. The perfusion pressure was continuously recorded on a data acquisition system (MacLab, AD Instruments, Houston, Tex.). The perfusate was infused for twenty minutes to flush the penile vasculature of blood and obtain a stable pressure before the beginning of any experiment. Following this, sodium nitroprusside (20 μg/mL) was infused to induce maximum vasodilation. The flow rate-perfusion/pressure relationship was determined by measuring the pressure at minimum vascular resistance at flow rates of 0.5, 1.0, 2.0, 4.0 mL/min per kg of body weight. A cumulative α1-adrenoreceptor concentration-response curve to methoxamine (2.5, 5, 10, 25, 50 μg/mL was then generated. Each concentration of methoxamine was infused for a duration of 10 minutes, at which time a plateau was reached. Subsequently, a continuous injection of a cocktail containing a supramaximal concentration of vasoconstrictors (vasopressin, 20.5 μg/mL, angiotensin-II, 200 ng/mL; methoxamine, 64 μg/mL; Sigma, St. Louis, Mo., 63178) was given to ensure that maximum constrictor response that was not dependent upon the activation of a single receptor type was achieved. A second injection of the constrictor cocktail was administered to ensure the tissue “yield” was maximum constriction. […] At the end of the concentration-response relationship, the aorta was cut distal to the catheter, and a baseline flow-pressure curve was recorded again. This was done to ensure that pressure fell to zero and to account for any false pressure readings that may have resulted due to movement of the catheter during the experiment.
The hindlimb perfusion preparation was adopted from a technique originally designed by Folkow et al., Acta Physiol Scand., 80: 93-106 (1973), as modified by Adams et al., Hypertension, 14: 191-202 (1989). The perfusion experiment was performed as described above. Drugs were administered into the mixing chamber via a Harvard Apparatus infusion pump. The rats were anaesthetized (Inactin, 100 mg/kg of body weight, i.p.) and heparinized (1000 IU/kg of body weight, i.v.).

Experiment [2] shares this test system. Kind of experiment: Left ventricle weight of SHR after 1 or 2 weeks of drug treatment. The settings on record: for Left Ventricle Weight (g)/Body Weight (kg) Ratio: control 2.46 ± 0.08. It is filed as in vivo, rat. How it is done: Following this treatment, structurally-based resistance to blood flow in the perfused penile vascular bed and hindlimb vascular bed models were measured using the methods detailed above. […] The animal hearts were excised and weighed.

Experiment [3] concerns α1-adrenoreceptor. Nature of the experiment: Hindlimb vascular bed perfusion, cumulative α1-adrenoreceptor concentration-response curve to methoxamine. The settings on record: mean ± SD. Further details: species or system rat. How it is done: Male spontaneously hypertensive (SH) rats weighing between 246-313 g, and normotensive Sprague-Dawley (SD) rats weighing between 246-440 g were obtained from Charles River Laboratories (Montreal, Quebec, Canada). The animals were maintained in individual cages with a 12 hour light/12 hour dark cycle, and a room temperature of 22-24° C. They were provided with standard rodent chow and tap water ad libitum and were acclimated to the room for at least two days before the experiments. All procedures were carried out in accordance with the guidelines set out by the Canadian Council on Animal Care. The hindlimb perfusion preparation was adopted from a technique originally designed by Folkow et al., Acta Physiol Scand., 80: 93-106 (1973), as modified by Adams et al., Hypertension, 14: 191-202 (1989). The perfusion experiment was performed as described above. Drugs were administered into the mixing chamber via a Harvard Apparatus infusion pump. […] Following a midline abdominal incision, the abdominal aorta was cannulated proximal to the iliac bifurcation with a double lumen catheter (Storz, St Louis, Mo., USA), and the catheter was extended down the right common iliac artery. One lumen of the catheter was connected to the perfusion apparatus, while the other was connected to a pressure transducer for arterial pressure recording. […] A cumulative α1-adrenoreceptor concentration-response curve to methoxamine (0.5, 1, 2, 4, 8, 16, 32, 64 μg/mL) was then generated. […] Subsequently, a bolus injection of a cocktail containing a supramaximal concentration of vasoconstrictors was given as above. At the end of the concentration-response relationship, the iliac artery was cut distal to the catheter, and the flow pressure curve was monitored again. Flow rates for the hindlimb perfusion experiments were determined based on expected flow rates of exercising skeletal muscle at maximum dilation. […] All values in the figures and tables were expressed as mean ± standard deviation. Results comparing penile and hindlimb vasculature were analyzed using the Student's t-test. […]

For experiment [4], the system named is α1-adrenoreceptor. Nature of the experiment: Penile vascular bed perfusion, cumulative α1-adrenoreceptor concentration-response curve to methoxamine. Further details: species or system rat. The settings on record: mean ± SD; for Slope Methoxamine: steepest slope of concentration-response curve. The procedure: Male spontaneously hypertensive (SH) rats weighing between 246-313 g, and normotensive Sprague-Dawley (SD) rats weighing between 246-440 g were obtained from Charles River Laboratories (Montreal, Quebec, Canada). The animals were maintained in individual cages with a 12 hour light/12 hour dark cycle, and a room temperature of 22-24° C. They were provided with standard rodent chow and tap water ad libitum and were acclimated to the room for at least two days before the experiments. All procedures were carried out in accordance with the guidelines set out by the Canadian Council on Animal Care.
Penile perfusion preparations were made using the procedure established by Banting, J. D., et al., “Isolation and Perfusion of the Pudendal Vasculature in Male Rats. J Urol., 2: 587-590 (1995). A heated chamber served to maintain the ambient temperature and the entire preparation at 37-38° C. The perfusate was held in a reservoir and passed through a heating and a bubble trapping/mixing chamber connected to a single peristaltic pump (Minipuls 2 Pump, Gilson, Inc., 3000 W. Beltline Highway, Middleton, Wis. USA 53562). An injection port was located distal to the pump for the introduction of pharmacological agents to minimize dead volume. Drugs were administered via a Harvard Apparatus, Inc. infusion pump (Harvard Apparatus, Inc., 84 October Hill Road, Holliston, Mass. 01746). The perfusate was a Tyrode-dextran solution consisting of a mixture of 20 mg of KCI, 32.3mg of CaCl2.H2O, 5.1 mg of MgCl2.6H2O, 6.2 mg of NaH2PO4.2H2O, 155 mg of NaHCO3, 100 mg of glucose, and 800 mg of NaCl in each 100 mL of fluid. The solution was maintained at pH 7.4, and a temperature of 37-39° C., and oxygenated with 95% O2 and 5% CO2. The rats were anaesthetized (sodium pentobarbital 60 mg/kg body weight i.p.) and heparinized (1000 IU/kg, i.v.). The bilateral isolation of penile vasculature was achieved by ligating all of the branching arteries except for the pudendal; then the abdominal aorta was cannulated proximal to the iliac bifurcation with a single lumen catheter. The catheter was connected to the perfusion apparatus via a pressure transducer for arterial pressure recording. […] The perfusion pressure was continuously recorded on a data acquisition system (MacLab, AD Instruments, Houston, Tex.). […] The flow rate-perfusion/pressure relationship was determined by measuring the pressure at minimum vascular resistance at flow rates of 0.5, 1.0, 2.0, 4.0 mL/min per kg of body weight. […] At the end of the concentration-response relationship, the aorta was cut distal to the catheter, and a baseline flow-pressure curve was recorded again. […]

[5] abbreviates: SHR, enalapril 30 mg/kg per day, 2-week period of treatment, versus control.
[6] abbreviates: SHR-E1: enalapril 30 mg/kg per day, 1 week, n = 5.
Setting [7] is: SHR-E2: enalapril 30 mg/kg per day, 2 weeks, n = 7.
[8] abbreviates: SHR-H: hydralazine 45 mg/kg per day, n = 7.

For `CCOC(=O)[C@H](CCc1ccccc1)N[C@@H](C)C(=O)N1CCC[C@H]1C(=O)O` [enalapril], the “decrease of “yield” value” in experiment [1] (setting [5]) is given as 12.1%±6.0%. Further, the “Slope Flow Pressure” value was determined as 6.10 ± 1.5 in experiment [1] (setting [6]) and 6.45 ± 1.31 in experiment [1] (setting [7]). Also, the “Maximum Constriction With Cocktail “Yield”” value was 358 ± 20 mm Hg in experiment [1] (setting [6]) and 335 ± 23 mm Hg in experiment [1] (SHR-E2: enalapril 30 mg/kg per day, 2 weeks, n = 7, vasopressin, angiotensin-II, methoxamine cocktail). The “decrease of left ventricular mass” value in experiment [2] (setting [5]) is 13.6%±3.2%. Also, the “Left Ventricle Weight (g)/Body Weight (kg) Ratio” value in experiment [2] (setting [6]) is reported as 2.17 ± 0.05 g/kg; in experiment [2] (setting [7]) it was 2.13 ± 0.08 g/kg.
`NNc1nncc2ccccc12` [hydralazine]: the “decrease of “yield” point” value in experiment [1] (SHR, hydralazine 45 mg/kg per day, versus control) is 7.3%±2.9%. In experiment [1] (setting [8]), the “Slope Flow Pressure” value is recorded as 6.63 ± 0.86 and the “Maximum Constriction With Cocktail “Yield”” value stood at 353 ± 11 mm Hg. Further, the “decrease of left ventricular weight” value in experiment [2] (SHR, hydralazine 45 mg/kg per day, versus control, no significant effect) was 3.7%±5.0%. Moreover, the “Left Ventricle Weight (g)/Body Weight (kg) Ratio” value in experiment [2] (setting [8]) turned out to be 2.37 ± 0.12 g/kg.
Take `COc1ccc(OC)c(C(O)C(C)N)c1` (centres unmarked) [methoxamine]: the “Maximum Constriction With Methoxamine” value in experiment [3] (SD, methoxamine 64 μg/mL) is recorded as 191 ± 55 mm Hg; in experiment [3] (SHR, perfusion pressure at supramaximal methoxamine 64 μg/mL), 253±25 mm Hg; in experiment [4] (SD (normotensive Sprague-Dawley), methoxamine 50 μg/mL), 171 ± 36 mm Hg; in experiment [4] (SHR, perfusion pressure at supramaximal methoxamine 50 μg/mL), 172±32 mm Hg. In addition, the “Slope Methoxamine” value turned out to be 3.0±0.99 in experiment [3] (SD, steepest slope of concentration-response curve); 2.03±0.68 in experiment [4] (SD); 1.64±0.21 in experiment [4] (SHR).
